According to patent US20250113824A1, “WEED CONTROL METHOD” (SUMITOMO CHEMICAL COMPANY, LIMITED, priority 2018, published 2025):

Tests used:
[1] = system: glyphosate-resistant weeds and volunteer glyphosate-tolerant soybean and cotton; experiment: Soil treatment pot test in greenhouse (Example 1); assay type: in vivo; conditions: soil treated on day of seeding; 6.25, 12.5, 25, 50, 100 or 150 g/ha; 200 L/ha; twenty-eight days after treatment
Method: (§1) In a plastic pot are seeded glyphosate-resistant Amaranthus palmeri in which the number of copies of EPSPS gene has been increased, glyphosate-resistant waterhemp in which the number of copies of EPSPS gene has been increased, glyphosate-resistant kochia in which the number of copies of EPSPS gene has been increased, marestail which is resistant to glyphosate by involving an ABC transporter, Guernsey fleabane which is resistant to glyphosate by involving an ABC transporter, fleabane which is resistant to glyphosate by involving an ABC transporter, glyphosate-resistant goosegrass having Thr102Ile, glyphosate-resistant goosegrass having Pro106Ser, glyphosate-resistant goosegrass having Pro106Ala, glyphosate-resistant goosegrass having Pro106Leu, glyphosate-resistant goosegrass having Thr102Ile and Pro106Ser, glyphosate-resistant darnel having Thr102Ile, glyphosate-resistant darnel having Pro106Ser, glyphosate-resistant darnel having Pro106Ala, glyphosate-resistant darnel having Pro106Leu, volunteer glyphosate-tolerant soybean, and volunteer glyphosate-tolerant cotton. On the same day, the soil is treated with the present compound at the application rate of 6.25, 12.5, 25, 50, 100 or 150 g/ha. The amount of a liquid sprayed is 200 L/ha. Subsequently, the plants are cultivated in a greenhouse.

[2] = system: glyphosate-resistant weeds and volunteer glyphosate-tolerant soybean and cotton; experiment: Foliar treatment pot test in greenhouse (Example 2); assay type: in vivo; conditions: foliar application after 21 days cultivation; 6.25, 125, 25, 50, 100 or 150 g/ha; 200 L/ha; fourteen days after treatment
Method: as §1, with “The plants are cultivated in a greenhouse for 21 days, and then” for “On the same day, the soil is treated with”, “compound is applied to foliage of the plants” for “compound”, “at” for “at the”, “[…],” for “12.5,”

CCOC(=O)COc1ncccc1Oc1cc(-n2c(=O)cc(C(F)(F)F)n(C)c2=O)c(F)cc1Cl [present compound, ethyl [3-[2-chloro-4-fluoro-5-(1-methyl-6-trifluoromethyl-2,4-dioxo-1,2,3,4-tetrahydropyrimidin-3-yl)phenoxy]-2-pyridyloxy]acetate]
effect against the weeds [1]: significant effect | effect against the weeds [2]: significant effect
